# From BindingDB's records for patent US20250034159 (Oric Pharmaceuticals, 2025)
# Legend:
# [1] = target: Epidermal growth factor receptor [L858R,C797S] (Human, UniProt P00533, C797S/L858R); assay: Biochemical Assay Against EGFR L858R/C797S Protein (EGFR LR/CS)
# Experimental: (§1) In wells A1 and A24, were added 12 μL of DMSO. […] To a well in Row A were added 12 μL of each 10 mM test compound stock (100% DMSO). […] The final intermediate dilution plate contained 4×16-point compound serial dilutions in assay buffer. The DMSO concentration was 10%. The intermediate compound dilution plate was transferred to the Bravo and the “5 uL dispense into ARP.pro” protocol was run. To the black low volume assay ready plates, were added 5 μL of 40 uM Phosphosens peptide sensor/4 mM ATP working solution to each well. […] To column 24, was added 10 μL of assay buffer. The final DMSO concentration was 2.5%.
# [2] = target: T1, Epidermal growth factor receptor [DEL746-750,C797S] (Homo sapiens, UniProt P00533, C797S/DEL746-750); assay: Biochemical Assay Against EGFR Exon 19 Deletion/C797S Protein (EGFR d19/CS)
# T1 construct: gene EGFR
# Experimental: as §1
# T1 sequence (P00533 with tags, fused parts or gaps C797S/DEL746-750 limits assumed): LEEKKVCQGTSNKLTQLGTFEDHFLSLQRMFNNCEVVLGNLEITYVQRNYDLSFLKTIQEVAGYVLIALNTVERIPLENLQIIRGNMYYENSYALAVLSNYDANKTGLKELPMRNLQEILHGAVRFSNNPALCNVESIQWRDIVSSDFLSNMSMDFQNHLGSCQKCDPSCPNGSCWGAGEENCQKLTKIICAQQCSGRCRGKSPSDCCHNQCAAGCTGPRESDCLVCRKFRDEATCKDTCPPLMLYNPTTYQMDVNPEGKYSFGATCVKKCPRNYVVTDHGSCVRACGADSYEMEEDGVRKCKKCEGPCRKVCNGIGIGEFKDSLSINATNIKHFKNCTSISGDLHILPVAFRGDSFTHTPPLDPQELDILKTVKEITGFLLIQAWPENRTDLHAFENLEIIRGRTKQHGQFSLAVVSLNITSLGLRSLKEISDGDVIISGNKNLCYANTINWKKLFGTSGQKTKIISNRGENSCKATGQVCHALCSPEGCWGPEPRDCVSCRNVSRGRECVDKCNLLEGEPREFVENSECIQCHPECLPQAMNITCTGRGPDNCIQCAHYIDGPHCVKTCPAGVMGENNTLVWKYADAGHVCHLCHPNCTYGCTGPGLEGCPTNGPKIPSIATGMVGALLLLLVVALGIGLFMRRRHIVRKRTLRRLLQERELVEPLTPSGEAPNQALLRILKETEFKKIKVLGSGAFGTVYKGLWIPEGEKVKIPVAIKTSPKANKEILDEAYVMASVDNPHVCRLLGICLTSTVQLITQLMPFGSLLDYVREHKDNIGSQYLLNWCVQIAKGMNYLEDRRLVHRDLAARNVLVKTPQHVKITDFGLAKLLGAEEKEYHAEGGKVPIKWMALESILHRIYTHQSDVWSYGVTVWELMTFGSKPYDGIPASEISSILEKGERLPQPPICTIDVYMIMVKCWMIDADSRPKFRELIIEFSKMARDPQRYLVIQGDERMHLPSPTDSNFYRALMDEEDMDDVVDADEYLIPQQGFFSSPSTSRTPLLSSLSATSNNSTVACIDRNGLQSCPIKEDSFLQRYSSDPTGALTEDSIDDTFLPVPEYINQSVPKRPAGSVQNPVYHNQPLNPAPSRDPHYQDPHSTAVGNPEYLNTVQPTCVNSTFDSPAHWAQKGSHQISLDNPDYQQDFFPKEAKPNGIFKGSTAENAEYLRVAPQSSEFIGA
# Chain of Epidermal growth factor receptor [L858R,C797S] (P00533 25-1210 C797S/L858R limits assumed): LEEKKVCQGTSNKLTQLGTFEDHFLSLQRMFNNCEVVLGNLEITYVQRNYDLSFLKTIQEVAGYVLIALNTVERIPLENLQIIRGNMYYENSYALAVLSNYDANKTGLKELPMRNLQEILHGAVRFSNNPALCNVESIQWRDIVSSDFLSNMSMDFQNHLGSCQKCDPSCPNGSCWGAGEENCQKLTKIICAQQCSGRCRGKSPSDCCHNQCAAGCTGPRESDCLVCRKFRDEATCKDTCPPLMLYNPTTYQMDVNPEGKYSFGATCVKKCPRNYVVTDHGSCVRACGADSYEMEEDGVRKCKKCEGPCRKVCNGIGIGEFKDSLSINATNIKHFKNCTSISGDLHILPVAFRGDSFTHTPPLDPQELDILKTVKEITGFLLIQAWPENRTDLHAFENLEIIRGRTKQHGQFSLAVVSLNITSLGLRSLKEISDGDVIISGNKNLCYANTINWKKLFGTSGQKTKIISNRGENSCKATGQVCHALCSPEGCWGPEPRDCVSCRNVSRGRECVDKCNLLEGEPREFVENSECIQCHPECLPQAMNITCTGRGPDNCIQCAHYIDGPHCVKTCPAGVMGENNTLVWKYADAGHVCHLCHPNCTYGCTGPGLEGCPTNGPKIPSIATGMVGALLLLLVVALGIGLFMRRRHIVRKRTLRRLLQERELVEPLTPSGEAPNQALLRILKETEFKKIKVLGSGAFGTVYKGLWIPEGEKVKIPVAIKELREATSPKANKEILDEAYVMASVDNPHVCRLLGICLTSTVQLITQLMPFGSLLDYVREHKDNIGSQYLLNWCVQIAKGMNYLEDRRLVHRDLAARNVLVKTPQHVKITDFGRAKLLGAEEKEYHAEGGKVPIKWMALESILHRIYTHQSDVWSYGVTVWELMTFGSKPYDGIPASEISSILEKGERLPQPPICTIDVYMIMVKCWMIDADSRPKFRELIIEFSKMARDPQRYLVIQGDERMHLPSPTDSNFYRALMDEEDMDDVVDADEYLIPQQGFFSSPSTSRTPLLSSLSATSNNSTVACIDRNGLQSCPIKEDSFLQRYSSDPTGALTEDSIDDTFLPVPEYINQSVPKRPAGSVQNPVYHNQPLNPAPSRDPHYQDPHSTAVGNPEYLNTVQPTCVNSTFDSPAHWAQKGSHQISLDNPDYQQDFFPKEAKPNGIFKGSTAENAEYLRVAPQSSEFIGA
IC50 [1],IC50 [2],SMILES
6.32 nM,8.54 nM,"O=S1(=O)CCC(n2cc(-c3ncnc4oc(-c5ccccc5)cc34)c(-c3ccc(F)cc3)n2)CC1 [US20250034159, Example 83]"
,2.41 nM,"Fc1ccc(-c2nn(CCOC(F)(F)F)cc2-c2ncnc3oc(-c4ccccc4)cc23)cc1 [US20250034159, Example 144]"
,0.57 nM,"Fc1ccc(-c2nn(CCC(F)F)cc2-c2ccnc3oc(-c4ccccc4)cc23)cc1 [US20250034159, Example 157]"
,0.42 nM,"O=S1(=O)CC(n2cc(-c3ncnc4oc(C5=CCN(S(=O)(=O)C6CC6)CC5)cc34)c(-c3ccc(F)cc3)n2)C1 [US20250034159, Example 177]"
